Test results from US9056855B2, “Metalloenzyme inhibitor compounds” (Viamet Pharmaceuticals, Inc., priority 2010, dated 2015).

Key:
[1] = biological target: T1, CYP17 (Rattus norvegicus, UniProt P11715); assay: Inhibition of CYP17 (rat testicular microsomes); type: biochemical; details: pooled rat testicular microsomes
T1 construct: from tissue; host or cells: rat testis (pooled microsomes)
T1 sequence (P11715 1-507): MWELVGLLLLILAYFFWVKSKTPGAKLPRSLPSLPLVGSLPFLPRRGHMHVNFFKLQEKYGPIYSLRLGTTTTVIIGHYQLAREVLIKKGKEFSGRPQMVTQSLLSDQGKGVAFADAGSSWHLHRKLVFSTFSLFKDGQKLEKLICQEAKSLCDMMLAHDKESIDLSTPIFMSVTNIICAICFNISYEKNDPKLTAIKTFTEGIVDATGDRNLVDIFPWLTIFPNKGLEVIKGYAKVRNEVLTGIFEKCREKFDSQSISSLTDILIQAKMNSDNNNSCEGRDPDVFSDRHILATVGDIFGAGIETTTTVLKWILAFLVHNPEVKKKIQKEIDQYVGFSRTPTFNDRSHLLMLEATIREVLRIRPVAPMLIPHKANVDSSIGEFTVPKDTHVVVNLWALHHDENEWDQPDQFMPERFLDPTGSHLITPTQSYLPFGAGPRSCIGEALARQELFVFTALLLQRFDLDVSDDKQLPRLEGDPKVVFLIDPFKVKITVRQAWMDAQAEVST
Description: CYP17 activity was assayed according to the following procedure. […] The individual test compound and isozyme inhibitor solutions were then diluted 20-fold with deionized water (50:950 v/v) to concentrations of 135, 27, 4.5, 0.9, 0.15, 0.03 and 0.005 μM. […] For active controls, blank test compound diluent was added in place of test compound solution.

[2] = biological target: CYP2C9 (Homo sapiens, UniProt P11712); assay: Inhibition of liver cytochrome P450 enzymes, CYP2C9 (human liver microsomes)
Description: (§1) A. Inhibition of Liver Cytochrome P450 Enzymes
(§2) Solutions of each test compound were separately prepared at concentrations of 20000, 6000, 2000, 600, 200, and 60 μM by serial dilution with DMSO:MeCN (50:50 v/v). The individual test compound solutions were then diluted 20-fold with DMSO:MeCN:deionized water (5:5:180 v/v/v) to concentrations of 1000, 300, 100, 30, 10, and 3 μM. […] The mixed inhibitor solutions were then diluted 20-fold with DMSO:MeCN:deionized water (5:5:180 v/v/v) to concentrations of 300, 100, 30, 10, 3, 1, 0.3, and 0.1 μM. The percent of organic solvent attributable to the test compound or inhibitor mixture in the final reaction mixture was 2% v/v.
(§3) Pooled human liver microsome suspension (20 mg/mL) was diluted with phosphate buffer to obtain a 5 mg/mL suspension. A solution of NADPH was prepared in phosphate buffer at a concentration of 5 mM. Separate stock solutions of each substrate were prepared in DMSO:MeCN (50:50 v/v), mixed, and diluted in phosphate buffer to obtain a single solution containing each substrate at five times its experimentally determined Km concentration. The percent of organic solvent attributable to substrate mixture in the final reaction mixture was 1% v/v.
(§4) Substrate solution and microsome suspension were combined in a 1:1 volume ratio, mixed, and distributed to reaction wells of a PCR plate. Individual test compound or combined inhibitor solutions at each concentration were added to the wells and mixed by repetitive aspirate-dispense cycles. […] Reaction mixtures were allowed to equilibrate at 37° C. for approximately two minutes before adding NADPH solution to initiate reaction, followed by pipette mixing of reaction mixture. Ten minutes after addition of NADPH, the reaction mixtures were quenched with cold acetonitrile. […] A portion of the supernatant was analyzed by gradient reverse-phase HPLC with detection by electrospray ionization triple quadrupole mass spectrometry in the positive ion mode.
(§5) Data was fitted to sigmoid dose-response curves and the inhibitory potency of each test compound was determined as its IC50 value.

[3] = biological target: CYP2C19 (Homo sapiens, UniProt P33261); assay: Inhibition of liver cytochrome P450 enzymes, CYP2C19 (human liver microsomes)
Description: as §1, §2, §3, §4, §5

[4] = biological target: CYP3A4 (Homo sapiens, UniProt P08684); assay: Inhibition of liver cytochrome P450 enzymes, CYP3A4 (human liver microsomes)
Description: as §1, §2, §3, §4, §5

Sequence of CYP2C9 (P11712 whole entry): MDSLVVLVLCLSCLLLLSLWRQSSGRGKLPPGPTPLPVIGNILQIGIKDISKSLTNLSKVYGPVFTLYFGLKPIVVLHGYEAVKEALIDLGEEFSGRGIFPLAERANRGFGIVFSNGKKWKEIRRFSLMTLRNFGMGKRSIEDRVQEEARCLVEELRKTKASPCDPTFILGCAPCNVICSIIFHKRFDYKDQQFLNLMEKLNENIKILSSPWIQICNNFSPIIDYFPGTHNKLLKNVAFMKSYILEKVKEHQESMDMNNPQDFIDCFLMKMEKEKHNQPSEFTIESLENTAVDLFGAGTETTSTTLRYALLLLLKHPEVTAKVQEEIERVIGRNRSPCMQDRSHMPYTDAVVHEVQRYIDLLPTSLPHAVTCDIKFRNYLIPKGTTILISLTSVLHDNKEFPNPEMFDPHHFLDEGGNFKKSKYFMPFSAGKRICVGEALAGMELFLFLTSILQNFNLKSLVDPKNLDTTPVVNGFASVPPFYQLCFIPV
Sequence of CYP3A4 (P08684 whole entry): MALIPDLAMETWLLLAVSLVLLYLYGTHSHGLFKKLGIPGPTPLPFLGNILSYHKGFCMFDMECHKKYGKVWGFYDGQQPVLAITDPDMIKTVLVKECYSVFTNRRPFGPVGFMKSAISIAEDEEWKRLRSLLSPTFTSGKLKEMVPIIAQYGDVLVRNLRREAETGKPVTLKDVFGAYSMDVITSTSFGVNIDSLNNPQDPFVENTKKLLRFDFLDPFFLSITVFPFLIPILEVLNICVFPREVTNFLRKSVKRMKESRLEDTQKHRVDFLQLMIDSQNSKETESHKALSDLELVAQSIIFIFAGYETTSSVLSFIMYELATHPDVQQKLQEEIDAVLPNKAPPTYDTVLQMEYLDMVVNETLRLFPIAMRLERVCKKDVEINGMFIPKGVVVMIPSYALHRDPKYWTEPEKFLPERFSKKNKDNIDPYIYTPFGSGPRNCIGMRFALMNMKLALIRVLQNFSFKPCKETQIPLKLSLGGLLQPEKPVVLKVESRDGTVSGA
Sequence of CYP2C19 (P33261 whole entry): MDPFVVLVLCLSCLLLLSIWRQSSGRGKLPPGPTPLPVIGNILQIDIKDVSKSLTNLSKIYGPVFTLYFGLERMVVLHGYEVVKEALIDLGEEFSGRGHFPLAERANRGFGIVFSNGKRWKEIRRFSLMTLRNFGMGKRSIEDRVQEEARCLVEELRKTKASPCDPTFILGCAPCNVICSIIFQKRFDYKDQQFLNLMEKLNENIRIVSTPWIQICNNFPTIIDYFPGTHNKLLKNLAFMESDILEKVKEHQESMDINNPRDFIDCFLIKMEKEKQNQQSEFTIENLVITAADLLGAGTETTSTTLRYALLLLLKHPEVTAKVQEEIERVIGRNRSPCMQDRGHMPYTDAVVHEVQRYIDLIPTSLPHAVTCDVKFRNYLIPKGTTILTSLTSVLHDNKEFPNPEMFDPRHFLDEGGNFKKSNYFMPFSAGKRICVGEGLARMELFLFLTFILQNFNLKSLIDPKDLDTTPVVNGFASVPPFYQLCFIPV

SMILES | IC50 [1] [µM] | IC50 [2] [µM] | IC50 [3] [µM] | IC50 [4] [µM]
CSc1ccc2nc(C(O)(c3ccncn3)C(C)C)ccc2c1 (centres unmarked) [Example 2, 2-Methyl-1-(6-(methylthio)quinolin-2-yl)-1-(pyrimidin-4-yl)propan-1-ol] | 0.12 | 3.3 | 5.1 | 19
CC(C)C(O)(c1ccncn1)c1ccc2c(-c3cccs3)c(OC(F)F)ccc2n1 (centres unmarked) [Example 8, 1-(6-(difluoromethoxy)-5-(thiophen-2-yl)quinolin-2-yl)-2-methyl-1-(pyrimidin-4-yl)propan-1-ol] | 1 | – | – | –
CC(C)C(O)(c1ccncn1)c1ccc2cc(OC(F)(F)F)ccc2n1 (centres unmarked) [Example 6, 2-methyl-1-(pyrimidin-4-yl)-1-(6-(trifluoromethoxy)quinolin-2-yl)propan-1-ol] | 0.98 | – | – | –
CC(C)C(O)(c1ccncn1)c1ccc2c(C(F)(F)F)c(OC(F)F)ccc2n1 (centres unmarked) [Example 7, 1-(6-(difluoromethoxy)-5-(trifluoromethyl)quinolin-2-yl)-2-methyl-1-(pyrimidin-4-yl)propan-1-ol] | 0.6 | – | – | –
CC(C)C(O)(c1ccncn1)c1ccc2c(C(F)(F)F)c(Cl)ccc2n1 (centres unmarked) [Example 5, 1-(6-chloro-5-(trifluoromethyl)quinolin-2-yl)-2-methyl-1-(pyrimidin-4-yl)propan-1-ol] | 1.75 | – | – | –
COc1cc2ccc(C(O)(c3ccncn3)C(C)C)cc2cc1OC (centres unmarked) [Example 1, 1-(6,7-dimethoxynaphthalen-2-yl)-2-methyl-1-(pyrimidin-4-yl)propan-1-ol] | 0.44 | 7.8 | 8.5 | 18
CC(C)C(O)(c1ccncn1)c1ccc2cc(OC(F)F)ccc2n1 (centres unmarked) [Example 3, 1-(6-(Difluoromethoxy)quinolin-2-yl)-2-methyl-1-(pyrimidin-4-yl)propan-1-ol] | 0.08 | 3.5 | 8.7 | 30
CC(C)C(O)(c1ccncn1)c1ccc2c(C(F)(F)F)c(-c3cccs3)ccc2n1 (centres unmarked) [Example 4, 2-methyl-1-(pyrimidin-4-yl)-1-(6-(thiophen-2-yl)-5-(trifluoromethyl)quinolin-2-yl)propan-1-ol] | 5.76 | – | – | –
